Reference: patent US6783966B1 (priority 2000, dated 2004)

Molecular target: T1, α1,4 Gal-T (Homo sapiens, UniProt Q9NPC4)
T1 sequence (Q9NPC4 1-353): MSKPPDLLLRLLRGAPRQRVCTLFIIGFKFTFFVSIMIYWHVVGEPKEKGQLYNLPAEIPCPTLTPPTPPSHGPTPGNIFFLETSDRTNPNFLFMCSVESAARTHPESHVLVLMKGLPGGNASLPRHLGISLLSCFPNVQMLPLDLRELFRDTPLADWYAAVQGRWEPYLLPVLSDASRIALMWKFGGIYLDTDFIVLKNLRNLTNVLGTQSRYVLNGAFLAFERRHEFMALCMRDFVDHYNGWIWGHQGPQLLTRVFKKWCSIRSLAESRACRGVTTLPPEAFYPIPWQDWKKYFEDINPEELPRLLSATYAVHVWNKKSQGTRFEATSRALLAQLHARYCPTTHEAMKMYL
Experiment: Enzyme assay of α1,4 Gal-T in membrane fraction of transfected L cells
Settings: for Km: acceptor substrate of α1,4 Gal-T, donor UDP-Gal; for significant levels of [14C] galactose incorporation (acceptor): potential acceptors, FIG. 4B
Experimental: The enzyme activity of α1,4 Gal-T in the membrane fraction was measured as descibed previously(ref.4). The reaction mixture for the assay contained the following in a volume of 50 μl:50 mM sodium cacodylate-HCl (pH 6.0), 10 mM MgCl2, 5 mM galactonolactone (Sigma), 0.3% Triton X-100 (Sigma), 0.4 mM (LacCer), 2.9 mM phosphatidylglycerol (Sigma), 0.2 mM UDP-Gal (Sigma), UDP-[^14C] Gal (2.5×10^5 dpm) (NEN), and membrane fraction containing 50 μg protein. The protein concentration was determined by Lowry's methods(ref.20). The products was isolated by a C18 Sep-Pak cartridge (Waters, Milford, Mass.) and analyzed by thin layer chromatography (TLC) and autoradiography using a Bio-Imaging Analyzer BAS2000 (Fuji Film, Tokyo).
Enzyme activity toward other potential acceptors was also examined (FIG. 4B).

Row | Substance | Km [µM] | significant levels of [14C] galactose incorporation (acceptor)
1 | galactosylceramide | 132 | significant levels
2 | lactosylceramide [LacCer] | 54.5 | significant levels
